Measurements: ChEMBL document CHEMBL1201862, “PubChem BioAssay data set” (2004)
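Compound exposure: 48 hours, 5 concentrations, 96-well plates. The concentration for 50% growth inhibition is given as GI50.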 Active and inactive are the calls of the source. Rule as the data show it: active = GI50 up to about 1.1 µM and inactive = higher.

Legend:
Assay in all cases: NCI-60 cell line screen, 48 h
SF-268 = system: SF-268
SNB-19 = system: SNB-19
NCI/ADR-RES = system: NCI/ADR-RES
SN12C = system: SN12C
SR = system: SR
Hs-578T = system: Hs-578T
HCC 2998 = system: HCC 2998
EKVX = system: EKVX
LOX IMVI = system: LOX IMVI
HT-29 = system: HT-29
HOP-62 = system: HOP-62
OVCAR-4 = system: OVCAR-4
RXF 393 = system: RXF 393
HL-60 = system: HL-60
KM12 = system: KM12
K562 = system: K562
SK-MEL-28 = system: SK-MEL-28
NCI-H23 = system: NCI-H23
COLO 205 = system: COLO 205
MCF7 = system: MCF7
SF-539 = system: SF-539
MDA-MB-435 = system: MDA-MB-435
NCI-H226 = system: NCI-H226
SK-MEL-2 = system: SK-MEL-2
TK-10 = system: TK-10
SK-MEL-5 = system: SK-MEL-5
SF-295 = system: SF-295
UO-31 = system: UO-31
OVCAR-3 = system: OVCAR-3
CCRF-CEM = system: CCRF-CEM
M14 = system: M14
HCT-116 = system: HCT-116
U-251 = system: U-251
HCT-15 = system: HCT-15
MDA-MB-231 = system: MDA-MB-231
OVCAR-5 = system: OVCAR-5
DU-145 = system: DU-145
RPMI-8226 = system: RPMI-8226
T47D = system: T47D
A549 = system: A549
OVCAR-8 = system: OVCAR-8
786-0 = system: 786-0
MDA-N = system: MDA-N
HOP-92 = system: HOP-92
SK-OV-3 = system: SK-OV-3
ACHN = system: ACHN
SW-620 = system: SW-620
MOLT-4 = system: MOLT-4
UACC-62 = system: UACC-62
Malme-3M = system: Malme-3M
SNB-75 = system: SNB-75
CAKI-1 = system: CAKI-1
UACC-257 = system: UACC-257
A498 = system: A498
NCI-H460 = system: NCI-H460
PC-3 = system: PC-3
IGROV-1 = system: IGROV-1
NCI-H522 = system: NCI-H522
BT-549 = system: BT-549

For `CCOc1cc(/C=N\O)cc(/C=N/O)c1O`, the GI50 (SF-268) was 22.6 µM (inactive), the GI50 (SNB-19) was 39.2 µM (inactive) and the GI50 (NCI/ADR-RES) was 41.7 µM (inactive). The GI50 (SN12C) was 51.6 µM (inactive), the GI50 (SR) was 29.3 µM (inactive) and the GI50 (Hs-578T) was 31.3 µM (inactive). For the same compound, the GI50 (HCC 2998) was 56.5 µM (inactive), the GI50 (EKVX) was 33.3 µM (inactive) and the GI50 (LOX IMVI) was 22.2 µM (inactive). For the same compound, the GI50 (HT-29) was 29.4 µM (inactive), the GI50 (HOP-62) was 37.1 µM (inactive) and the GI50 (OVCAR-4) was 42.6 µM (inactive). For the same compound, the GI50 (RXF 393) was 14.5 µM (inactive), the GI50 (HL-60) was 18.1 µM (inactive) and the GI50 (KM12) was 54.3 µM (inactive). For the same compound, the GI50 (K562) was 61.5 µM (inactive), the GI50 (SK-MEL-28) was 22.8 µM (inactive) and the GI50 (NCI-H23) was 30 µM (inactive). The GI50 (COLO 205) was 22.8 µM (inactive), the GI50 (MCF7) was 9.68 µM (inactive) and the GI50 (SF-539) was 24 µM (inactive). The GI50 (MDA-MB-435) was 32.3 µM (inactive), the GI50 (NCI-H226) was 37.9 µM (inactive) and the GI50 (SK-MEL-2) was 18.1 µM (inactive). The GI50 (TK-10) was > 100 µM (inactive), the GI50 (SK-MEL-5) was 17.7 µM (inactive) and the GI50 (SF-295) was 38.3 µM (inactive). For the same compound, the GI50 (UO-31) was 1.2 µM (inactive), the GI50 (OVCAR-3) was 31.1 µM (inactive) and the GI50 (CCRF-CEM) was 35.3 µM (inactive). For the same compound, the GI50 (M14) was 44 µM (inactive), the GI50 (HCT-116) was 38.5 µM (inactive) and the GI50 (U-251) was 25.6 µM (inactive). The GI50 (HCT-15) was 31.3 µM, the GI50 (MDA-MB-231) was 69.8 µM (inactive) and the GI50 (OVCAR-5) was 50.6 µM (inactive). The GI50 (DU-145) was 68.5 µM (inactive), the GI50 (RPMI-8226) was 24.7 µM (inactive) and the GI50 (T47D) was 21.9 µM (inactive). The GI50 (A549) was 29.5 µM (inactive), the GI50 (OVCAR-8) was 25.2 µM (inactive) and the GI50 (786-0) was 49.4 µM (inactive). For the same compound, the GI50 (MDA-N) was 35.6 µM (inactive), the GI50 (HOP-92) was 23.8 µM (inactive) and the GI50 (SK-OV-3) was 59.4 µM (inactive). The GI50 (ACHN) was 22.7 µM (inactive), the GI50 (SW-620) was 34.6 µM (inactive) and the GI50 (MOLT-4) was 29.1 µM (inactive). The GI50 (UACC-62) was 50.7 µM (inactive), the GI50 (Malme-3M) was 37.2 µM (inactive) and the GI50 (SNB-75) was 23.1 µM (inactive). The GI50 (CAKI-1) was 21.9 µM (inactive), the GI50 (UACC-257) was 47.2 µM (inactive) and the GI50 (A498) was 18 µM (inactive). The GI50 (NCI-H460) was 31.9 µM (inactive) and the GI50 (PC-3) was 28.2 µM (inactive).
In the case of `COC1/C=C/C(C)C(C(C)C(OC)C(C)CCC(=O)C(C)C(C/C=C/N(C)C=O)OC)OC(=O)/C=C/C=C(\C)CC(OC)CC2=CC(=O)O[C@H](C2)C(C)C(OC)CC(OC)/C=C/C(C)C(OC)C1` (some centres not stated), the GI50 (SF-268) is reported as 0.0336 µM (active), the GI50 (SNB-19) is reported as 0.0149 µM (active) and the GI50 (NCI/ADR-RES) is reported as 0.0107 µM (active). The GI50 (SN12C) was 0.014 µM (active), the GI50 (SR) was < 0.005 µM (active) and the GI50 (Hs-578T) was 0.0158 µM (active). The GI50 (HCC 2998) was 0.0133 µM (active), the GI50 (EKVX) was 0.084 µM (active) and the GI50 (LOX IMVI) was < 0.005 µM (active). The GI50 (HT-29) was < 0.005 µM (active), the GI50 (HOP-62) was < 0.005 µM (active) and the GI50 (OVCAR-4) was 0.0984 µM (active). The GI50 (RXF 393) was 0.0148 µM (active), the GI50 (KM12) was 0.0094 µM (active) and the GI50 (SK-MEL-28) was 0.00875 µM (active). For the same compound, the GI50 (NCI-H23) was 0.0521 µM (active), the GI50 (MCF7) was 0.0292 µM (active) and the GI50 (MDA-MB-435) was 0.0286 µM (active). The GI50 (IGROV-1) was 0.0113 µM (active), the GI50 (SK-MEL-2) was 0.00733 µM (active) and the GI50 (SK-MEL-5) was 0.00518 µM (active). For the same compound, the GI50 (SF-295) was 0.00619 µM (active), the GI50 (UO-31) was 0.0125 µM (active) and the GI50 (CCRF-CEM) was < 0.005 µM (active). The GI50 (HCT-116) was < 0.005 µM (active), the GI50 (HCT-15) was less than 0.005 µM and the GI50 (DU-145) was 0.191 µM (active). For the same compound, the GI50 (RPMI-8226) was < 0.005 µM (active), the GI50 (A549) was 0.0288 µM (active) and the GI50 (OVCAR-8) was 0.0224 µM (active). For the same compound, the GI50 (HOP-92) was 0.0142 µM (active), the GI50 (SK-OV-3) was 0.00955 µM (active) and the GI50 (SW-620) was 0.00766 µM (active). The GI50 (NCI-H522) was 0.00588 µM (active), the GI50 (BT-549) was 0.0108 µM (active) and the GI50 (MOLT-4) was < 0.005 µM (active). For the same compound, the GI50 (UACC-62) was 0.00752 µM (active), the GI50 (Malme-3M) was 0.00966 µM (active) and the GI50 (SNB-75) was < 0.005 µM (active). The GI50 (CAKI-1) was < 0.005 µM (active), the GI50 (UACC-257) was 0.00819 µM (active) and the GI50 (NCI-H460) was < 0.005 µM (active). For the same compound, the GI50 (PC-3) was 0.00989 µM (active).
With `CCOC(=O)CN1C(=O)NC(C)(c2ccccc2)C1=O` (configuration not stated) the GI50 (SF-268) was > 100 µM (inactive), the GI50 (SNB-19) was > 100 µM (inactive) and the GI50 (NCI/ADR-RES) was > 100 µM (inactive). For the same compound, the GI50 (SN12C) was > 100 µM (inactive), the GI50 (Hs-578T) was > 100 µM (inactive) and the GI50 (HCC 2998) was > 100 µM (inactive). For the same compound, the GI50 (EKVX) was > 100 µM (inactive), the GI50 (LOX IMVI) was > 100 µM (inactive) and the GI50 (HT-29) was > 100 µM (inactive). The GI50 (HOP-62) was > 100 µM (inactive), the GI50 (OVCAR-4) was > 100 µM (inactive) and the GI50 (RXF 393) was > 100 µM (inactive). The GI50 (KM12) was > 100 µM (inactive), the GI50 (K562) was > 100 µM (inactive) and the GI50 (SK-MEL-28) was > 100 µM (inactive). For the same compound, the GI50 (NCI-H23) was > 100 µM (inactive), the GI50 (COLO 205) was > 100 µM (inactive) and the GI50 (MCF7) was > 100 µM (inactive). The GI50 (SF-539) was > 100 µM (inactive), the GI50 (MDA-MB-435) was > 100 µM (inactive) and the GI50 (IGROV-1) was > 100 µM (inactive). The GI50 (SK-MEL-2) was > 100 µM (inactive), the GI50 (TK-10) was > 100 µM (inactive) and the GI50 (SK-MEL-5) was > 100 µM (inactive). For the same compound, the GI50 (SF-295) was > 100 µM (inactive), the GI50 (UO-31) was > 100 µM (inactive) and the GI50 (OVCAR-3) was > 100 µM (inactive). The GI50 (CCRF-CEM) was > 100 µM (inactive), the GI50 (M14) was > 100 µM (inactive) and the GI50 (HCT-116) was > 100 µM (inactive). For the same compound, the GI50 (U-251) was > 100 µM (inactive), the GI50 (HCT-15) was greater than 100 µM and the GI50 (MDA-MB-231) was > 100 µM (inactive). The GI50 (OVCAR-5) was > 100 µM (inactive), the GI50 (DU-145) was > 100 µM (inactive) and the GI50 (RPMI-8226) was > 100 µM (inactive). The GI50 (T47D) was > 100 µM (inactive), the GI50 (A549) was > 100 µM (inactive) and the GI50 (OVCAR-8) was > 100 µM (inactive). For the same compound, the GI50 (786-0) was > 100 µM (inactive), the GI50 (HOP-92) was > 100 µM (inactive) and the GI50 (SK-OV-3) was > 100 µM (inactive). The GI50 (ACHN) was > 100 µM (inactive), the GI50 (SW-620) was > 100 µM (inactive) and the GI50 (NCI-H522) was > 100 µM (inactive). The GI50 (BT-549) was > 100 µM (inactive), the GI50 (MOLT-4) was > 100 µM (inactive) and the GI50 (UACC-62) was > 100 µM (inactive). For the same compound, the GI50 (SNB-75) was > 100 µM (inactive), the GI50 (CAKI-1) was > 100 µM (inactive) and the GI50 (UACC-257) was > 100 µM (inactive). The GI50 (A498) was > 100 µM (inactive) and the GI50 (PC-3) was > 100 µM (inactive).
